Reference: a melting point compilation (Tetko et al.; mined from patent text by program, amines drawn as free bases though some values may be those of a salt)

Compound	melting point [°C]
O=Cc1ccc(N(CCO)CCO)cc1	63 to 64
CC1CN(c2c(F)cc3c(=O)c(C(=O)O)cn(C4CC4)c3c2Cl)CC1CN (configuration not stated)	235 to 238
CC(O)c1cc(S(N)(=O)=O)sc1S(=O)(=O)c1ccc(O)cc1 (configuration not stated)	173 to 175
O=C(O)c1cnc2ccoc2c1	238 to 239
CS(=O)(=O)Nn1c(=O)[nH]c2cc(C(F)(F)F)c(N3CCC(=O)CC3)cc2c1=O	238 to 242
CCCCS(=O)c1ccc(C#N)nc1 (configuration not stated)	54 to 55
FC(F)(F)c1cccc2c(-c3ccccc3)c(-c3ccccc3)cnc12	181 to 183
CC(=O)Nc1ccc2c3c(cccc13)CC2	180 to 186
COc1ccc(F)cc1NC(=O)Nc1ccc(N2CCN(C(=O)Nc3ccc(OCC(O)CO)cc3C(F)(F)F)CC2)nc1 (configuration not stated)	195
CCCCCCCCCCOc1cnc(-c2ccc(C#CCCCC(C)O)cc2)nc1 (configuration not stated)	82 to 83
O=C(Nc1ccc(-n2cnc(Cl)c2Cl)cc1)Nc1ccc(C(F)(F)F)cc1	221 to 224
Nc1cc(=O)n(Cc2ccccc2Cl)[nH]1	153
Nc1cc([N+](=O)[O-])cnc1Nc1ccccc1F	171 to 172
CN1CC2c3ccc(C=O)n3Cc3ccccc3N2C(=O)C1=O (configuration not stated)	300 to 302
Cc1ccc(CNc2nc(Nc3cccc(C(F)(F)F)c3)nc(OCC(F)(F)F)n2)o1	72 to 74
Cc1cc(C)c(Oc2cccc(C#N)c2C#N)c(C)c1	151 to 153
CN(C)C(=S)SC(C[N+](=O)[O-])c1ccc(Cl)s1 (configuration not stated)	76 to 77
COc1cc2ncnc(Nc3ccc(F)c(Cl)c3)c2cc1OCCC1OCCO1	167 to 168
Cc1nc2c(O)cccc2c(=O)n1C1CCC(=O)NC1=O (configuration not stated)	266 to 268
CC1(C)OC(=O)Nc2ccc(-c3cccc(CC#N)n3)cc21	210 to 212
CN(Cc1cccc2c1C(=O)N(C1CCC(=O)NC1=O)C2=O)C(=O)OC(C)(C)C (configuration not stated)	138 to 140
CCN(CC)CC(=O)Nc1cccc2c1C(=O)c1c(NC(=O)CN(CC)CC)cccc1C2=O	228 to 229
C=CCN1C(=O)CSC1=NOC(=O)NC	108 to 110
COc1cc(N2CCN(C[C@H](C)O)CC2)ccc1Nc1ncc2ccc(-c3ccccc3OC)n2n1	76 to 85

Compound	melting point [°C]
CCOC(=O)c1cnc2cc(Cl)ccc2c1Cl	81 to 82
NCC1Cc2cc(F)cc(-c3ccc(Cl)cc3Cl)c2O1 (configuration not stated)	107 to 109
Cc1ccc(C(=O)c2cc(C(C)(C)C)c(O)c(C(C)(C)C)c2)c(Cl)n1	116 to 117
CCOCCOc1ccc(C(=O)CN(Cc2ccccc2)Cc2ccccc2)cc1C(N)=O	128 to 131
Cc1cccc(C(=O)Nc2ccc(C(=O)N3Cc4ccccc4Cc4ccccc43)cc2)c1C	138 to 142
O=C1OC(c2ccccc2)=NC1=Cc1cccnc1	164
FC(F)(F)c1ccc(-c2cc(C(F)(F)F)n3ncc(-c4cccnc4)c3n2)cc1	163
O=C(O)c1cc(C(=O)O)c2c(c1)C(C(=O)O)CCN2 (configuration not stated)	240 to 241
CNCC1CN(c2ccc3ccccc3c2)C(=O)O1 (configuration not stated)	76.5 to 78
CN(C)C(=O)CCc1cc(-c2ccncc2)sc1-c1ccncc1	166 to 167
CN(C)CCNc1ccc(CNS(C)(=O)=O)c2sc3ccccc3c(=O)c12	126 to 127
CCOC(=O)c1cc(C)n(-c2cccc(C(=O)O)c2)c1-c1ccccc1	161 to 163
CC(C)N(c1nc(Cl)nc(N2C(C)(C)CC3(CC2(C)C)OCCO3)n1)C(C)C	179 to 184
Nc1ccc(S(=O)(=O)c2cc(-c3ccccc3F)nc(N3CCCC3)c2)cc1	246 to 248
CCCCCCCCCCCCCCCCOC(=O)OC(C)=CC(C)=O	33 to 35
CC(C)(C)OC(=O)NCc1ccc2c(c1)CNC2	114 to 115
CN(C)c1ccc(C=CC(=O)CC(=O)C=Cc2ccc(N(C)C)cc2)cc1	207 to 208
COc1cc(CCC(=O)c2c(O)cc(O)c(CCC(C)C)c2O)cc(OC)c1O	166 to 167
CC(=O)NC1(c2ccc(C(C)O)cc2)CC1 (configuration not stated)	114 to 116
C=CCOc1cc(O)c2c(=O)cc(-c3ccc(OC)c(OCC=C)c3)oc2c1	122
CC(=O)Nc1cc(C(F)(F)F)cc(C(F)(F)F)c1[N+](=O)[O-]	190 to 192
O=C(Nc1cc2ncc(CN3CCCC3)cc2cc1Cl)c1ccc(-c2ccc(Cl)s2)cc1	185
COc1c(C)cc(C)c2c1C(=O)C1CCCCC21 (configuration not stated)	72 to 74
CCOC(=O)c1cc2c3n(ccc-2n1)CC(c1cccc(OC)c1)=N3	198 to 200

Compound	melting point [°C]
Cn1cnc2c1c(=O)n(CCCO)c(=O)n2C	139 to 140
CCOC(=O)c1cn(-c2ccc(Cl)cc2)c(-c2ccc(Cl)cc2Cl)n1	143 to 144
CC1(C)NC2C(=O)N(C(O)C(=O)OCC(Cl)(Cl)Cl)C2S1 (configuration not stated)	125 to 127
COc1ccc(CC(CCCC(C#N)(c2ccc(OC)c(OC)c2)C(C)C)[N+](=O)[O-])cc1OC (configuration not stated)	107 to 110
NC(=O)c1ccc(-c2ccc(Oc3ccc(F)cc3)cc2)[nH]1	218 to 220
O=C(NCCO)c1cccc(-c2cccc3nn(Cc4ccc(F)c(F)c4)cc23)c1	116 to 117
COC(=O)c1ccc(CNC(=O)OCc2ccccc2)cc1OCc1ccccc1	106 to 107
CCOC(OCC)c1cc(Nc2ccc(OC)cc2)c(F)c(-c2ccc(Cl)cc2)n1	110 to 111
COC(=O)c1nc(-c2ccco2)cc(N)c1Cl	145 to 150
CCCc1nc2ccnn2c(OC)c1Cc1ccc(-c2ccccc2C#N)cc1	110
COc1ccc2ccc(N3C(=O)c4ccccc4C3OC(=O)CCCC(C)C)nc2n1 (configuration not stated)	105
CC(=O)Cc1nc2ccccc2c(=O)o1	120 to 122
COC(=O)c1ccc(Oc2cc3c(cc2C)C(C)(C)CCC3(C)C)cc1	133 to 135
NNC(=O)c1cc2cc(Cl)ccc2s1	90 to 91
CCCc1ccnc2c(=O)[nH]c(-c3cc(N)ccc3OCC)nc12	156 to 158
COC(=O)c1sc(C)c(N)c1C	88 to 89
O=C(Nc1ccc2cc(CN3CCCC3)cnc2c1)N1CCC(c2ccccc2)CC1	222 to 224
CCCCc1nn(C(F)(F)F)c(C(=O)O)c1Cc1ccc(C2(C(=O)O)CC=CC2)s1	134 to 135
Cc1c(C(F)(F)F)cnn(-c2ccc(Cl)c(C=C(Cl)C(=O)O)c2)c1=O	168
CON=C1[C@@H](c2cc(OC)c(OC)c(OC)c2)CC[C@@H]1c1cc(OC)c(OC)c(OC)c1 (relative stereo)	61 to 63
NC(=O)c1ccccc1C(=O)NCCCN1CCC(c2noc3cc(F)ccc23)CC1	129 to 130
Cc1nn(-c2c(Cl)cc(C(F)(F)F)cc2Cl)c(C)c1C=O	82 to 83
CC(=O)Nc1ccc(C[C@H](NC(=O)N(CCO)CCc2ccccc2)C(=O)NCCN(C)C)cc1	132 to 137
COc1cc(OC)c2c(c1)N1CCCCC1CC2=O (configuration not stated)	91 to 94
